The subject of test [1] is NCU05924 (endoxylanase, gh10-1). The test is described as follows: mRNA sequencing (RNA-Seq), transcript abundance of gh10-1. It counts as cell-based, Neurospora crassa. Conditions: Δ3βG mutant; 4 hours after transfer to 0.2% cellobiose. The method, then: (§1) Conidia from strains were inoculated at an OD595 equal to 0.05 in 50 ml Vogel's salts (45) with 2% w/v sucrose in a 250 ml Erlenmeyer flask and grown under constant light at 200 rpm for 16 hours. Biomass was then spun at 4200 rpm for 10 minutes and washed in Vogel's salts twice to remove any excess sucrose. Biomass was then added to a new flask containing 50 ml Vogel's salts supplemented with 1% w/v sucrose, 0.2% w/v cellobiose (Sigma) or 1% w/v Avicel® PH 101 (Sigma). Cultures were induced for 4 hrs under constant light at 200 rpm. The culture biomass was then harvested by filtration over a Whatman glass microfiber filter (GF/F) on a Buchner funnel and washed with 50 ml Vogel's salts. The biomass was flash frozen in liquid nitrogen and stored at −80° C. Three independent biological duplicates (flasks) were evaluated for each time point.
(§2) Total RNA from frozen samples was isolated using Zirconia/Silica beads (0.5 mm diameter; Biospec) and a Mini-Beadbeater-96 (Biospec) with 1 mL TRIzol reagent (Invitrogen) according to the manufacturer's instructions. […]
(§3) mRNA sequencing was performed using an Illumina kit (RS-100-0801) with isolated RNA. The final cDNA library was quantified by an Agilent bioanalyzer 2000 and sequenced using an Illumina Genome Analyzer-II using standard Illumina operating procedures. […]

Test [2] has as its system Neurospora crassa. The test is described as follows: Total Avicelase activity of bioreactor culture supernatant. Format: cell-based. Conditions: supernatant of the 24-hour induction time point. How it is done: Cellulase production was carried out in a 3.7 L bioreactor (BioEngineering AG) at an operating volume of 1 L. The bioreactor was equipped with one 48 mm Rushton impeller and four equally spaced baffles to provide adequate mixing. Impeller speed was controlled at 200 rpm for 8 hours to allow spore germination followed by 500 rpm for the remainder of the experiment. The temperature was maintained at 25° C., and medium pH was controlled at 5.5 using 40% phosphoric acid and 1:5 diluted ammonium hydroxide. The dissolved oxygen was maintained at a level greater than 20% of the saturation value of the medium by varying the aeration rate between 0.5 and 3 VVM in response to the dissolved oxygen tension. Minimal growth medium with 1% w/v sucrose as the sole carbon source (unless otherwise noted) was inoculated with 10^9 conidia. After 24 hours initial growth, cellulase production was induced with either cellobiose or Avicel® added to a final concentration of 0.2% w/v. […]
Sucrose, fructose, glucose and cellobiose were measured on a DIONEX ICS-3000 HPLC (Dionex Corp., Sunnyvale, Calif.) using a CarboPac PA20 Analytical Column (3×150 mm) and a CarboPac PA20 guard column (3×30 mm) at 30° C. […] Sugars were detected using PAD, Four-Potential Carbohydrate Waveform and Peaks were analyzed using the Chromeleon software package.

Test [3] deals with cbh-2 / gh6-2 (NCU09680). The test is described as follows: Quantitative RT-PCR of cbh-2/gh6-2 expression after 4 h induction with a carbon source. It counts as cell-based, Neurospora crassa. The method, then:
Strains were inoculated at an OD595 equal to 0.05 in 50 ml Vogel's salts with 2% (wt/vol) sucrose in a 250 ml Erlenmeyer flask and grown under constant light at 200 rpm for 16 hours. The biomass was then spun at 4000 rpm for 10 minutes and washed in Vogel's twice to remove any excess sucrose. The biomass was then added to a new 50 ml culture with 2% (wt/vol) sucrose, cellobiose (Sigma) or Avicel® PH 101 (Avicel®). Cultures were induced for 4 hours under constant light at 200 rpm. The culture biomass was then harvested by filtration over a Whatman glass microfiber filter (GF/F) on a Buchner funnel and washed with 50 ml Vogel's, biomass was flash frozen in liquid Nitrogen and stored at −80° C.
Total RNA from frozen samples was isolated using Zirconia/Silica beads (0.2 g, 0.5 mm diameter; Biospec) and a Mini-Beadbeater-96 (Biospec) with 1 mL TRIzol reagent (Invitrogen) according to manufacturer's instructions. Total RNA was further purified by digestion with TURBO DNA-free (Ambion) and an RNeasy kit (Qiagen). RNA integrity was checked by Nanodrop and agarose gel electrophoresis.
Quantitative RT-PCR was performed using the EXPRESS One-Step SYBR GreenER Kit (Invitrogen) and the StepOnePlus Real-Time PCR System (Applied Biosystems). Reactions were performed in triplicate with a total reaction volume of 10 ul including 300 nM each forward and reverse primers and 75 ng template RNA. Data Analysis was performed by the StepOne Software (Applied Biosystems) using Relative Quantitation/Comparative CT (ΔΔCT). […]
Conidia from strains were inoculated at an OD595 equal to 0.05 in 50 ml Vogel's salts (45) with 2% w/v sucrose in a 250 ml Erlenmeyer flask and grown under constant light at 200 rpm for 16 hours. […] Three independent biological duplicates (flasks) were evaluated for each time point. […]
Quantitative RT-PCR was performed using the EXPRESS One-Step SYBR GreenER Kit (Invitrogen) and the StepOnePlus Real-Time PCR System (Applied Biosystems). […] Data Analysis was performed by the StepOne Software (Applied Biosystems) using the Relative Quantitation/Comparative CT (ΔΔCT) setting. […]

Test [4] has as its system NCU07760 (gh61-2). The test is described as follows: mRNA sequencing (RNA-Seq), transcript abundance of gh61-2. It counts as cell-based, Neurospora crassa. The settings on record: Δ3βG mutant; 4 hours after transfer to 0.2% cellobiose. The method, then:
as §1, §2, §3

Test [5] has as its system cbh-1. Briefly: mRNA sequencing (RNA-Seq), transcript abundance of cbh-1. Format: cell-based, Neurospora crassa. The settings on record: Δ3βG; 4 hours after transfer to 0.2% cellobiose. How it is done: as §1, §2, §3

The source of these data is patent US9822373B2, “Mutant cells for protein secretion and lignocellulose degradation” (The Regents of the University of California, priority 2011, dated 2017).

Consider `O=C[C@H](O)[C@@H](O)[C@H](O[C@@H]1O[C@H](CO)[C@@H](O)[C@H](O)[C@H]1O)[C@H](O)CO` [cellobiose], for which the “FPKMs of NCU05924 (endoxylanase, gh10-1)” value in test [1] is listed as 10,000 FPKMs. Further, the “aggregate Avicelase activity, glucose equivalents” value in test [2] (Δ3βG strain) is 0.296 mg/mL; in test [2] (Δ3βGΔcre strain), 0.424 mg/mL. Moreover, the “cbh-2 relative expression compared to sucrose” value in test [3] (WT strain, 2% carbon source, 4 h induction) is on record as “no change”. Also, in test [3] (triple β-glucosidase mutant, 2% carbon source, 4 h induction), the “cbh-2 increase in relative expression over expression on sucrose” value is 2,100 fold. Moreover, the “induction of gh6-2” value in test [3] (Δcre-1 strain, shifted from sucrose to 0.2% cellobiose for 4 hrs) was 85 fold. For the same compound, the “FPKM of NCU07760 (gh61-2)” value in test [4] was 538 FPKM. Moreover, in test [5], the “FPKM for cbh-1” value was 130,865 FPKM.
